ChEMBL document CHEMBL1141466, “Potent memapsin 2 (beta-secretase) inhibitors: design, synthesis, protein-ligand X-ray structure, and in vivo evaluation” (Bioorg Med Chem Lett, 2008)

What was measured:
Beta-secretase 1 [1] = biological target: T1, Beta-secretase 1 (Homo sapiens, UniProt P56817)
Description: Binding affinity to recombinant memapsin 2

Beta-secretase 1 [2] = biological target: T1, Beta-secretase 1; remark: listed apart in the source
Description: Inhibition of memapsin 2 expressed in CHO cells

T1 sequence (P56817 whole entry): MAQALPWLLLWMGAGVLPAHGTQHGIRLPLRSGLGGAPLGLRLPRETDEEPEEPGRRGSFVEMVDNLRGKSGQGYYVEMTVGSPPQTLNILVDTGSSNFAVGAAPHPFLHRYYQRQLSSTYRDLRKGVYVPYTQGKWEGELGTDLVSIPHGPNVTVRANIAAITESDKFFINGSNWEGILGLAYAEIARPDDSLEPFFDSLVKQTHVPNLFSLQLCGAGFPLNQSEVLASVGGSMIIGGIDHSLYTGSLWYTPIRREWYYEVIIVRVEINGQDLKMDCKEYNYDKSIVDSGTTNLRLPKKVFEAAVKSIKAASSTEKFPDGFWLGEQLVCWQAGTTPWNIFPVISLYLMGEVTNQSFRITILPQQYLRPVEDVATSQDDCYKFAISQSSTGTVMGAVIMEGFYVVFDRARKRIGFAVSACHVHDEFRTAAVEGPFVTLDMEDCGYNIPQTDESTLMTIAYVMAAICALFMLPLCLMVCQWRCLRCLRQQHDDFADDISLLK

Structure (SMILES): Cc1nc(COC(=O)N[C@@H](CS(C)(=O)=O)C(=O)N[C@@H](CC(C)C)[C@@H](O)C[C@@H](C)C(=O)N[C@H](C(=O)NC(C)(C)C)C(C)C)c(C)o1
- Ki (Beta-secretase 1 [1]): 0.00012 µM

Structure (SMILES): CC(C)NC(=O)[C@@H](NC[C@@H](O)[C@H](Cc1ccccc1)NC(=O)c1cc(C(=O)N[C@H](C)c2ccccc2)cc(N(C)S(C)(=O)=O)c1)C(C)C
- Ki (Beta-secretase 1 [1]): 0.564 µM

Structure (SMILES): COc1cccc(CNC[C@@H](O)[C@H](CC(C)C)NC(=O)c2cc(C(=O)N[C@H](C)c3ccccc3)cc(N(C)S(C)(=O)=O)c2)c1
- Ki (Beta-secretase 1 [1]): 0.916 µM

Structure (SMILES): C[C@@H](NC(=O)c1cc(C(=O)N[C@@H](Cc2ccccc2)[C@H](O)CNCc2ccc3ccn(S(C)(=O)=O)c3c2)cc(N(C)S(C)(=O)=O)c1)c1ccccc1
- IC50 (Beta-secretase 1 [2]): 0.2 µM
- Ki (Beta-secretase 1 [1]): 0.027 µM

Structure (SMILES): COc1cccc(CNC[C@@H](O)[C@H](Cc2ccccc2)NC(=O)c2cc(C(=O)NC(C)c3nc(C)oc3C)cc(N(C)S(C)(=O)=O)c2)c1 (some centres not stated)
- Ki (Beta-secretase 1 [1]): 0.894 µM

Structure (SMILES): COc1cccc(CNC[C@@H](O)[C@H](Cc2ccccc2)NC(=O)c2cc(C(=O)NCc3nc(C)oc3C)cc(N(C)S(C)(=O)=O)c2)c1
- Ki (Beta-secretase 1 [1]): 0.552 µM

Structure (SMILES): C[C@@H](NC(=O)c1cc(C(=O)N[C@@H](Cc2ccccc2)[C@H](O)CNCc2ccc3cc[nH]c3c2)cc(N(C)S(C)(=O)=O)c1)c1ccccc1
- IC50 (Beta-secretase 1 [2]): 0.62 µM
- Ki (Beta-secretase 1 [1]): 0.23 µM

Structure (SMILES): COc1cccc(CNC[C@@H](O)[C@H](Cc2ccccc2)NC(=O)[C@H](CS(C)(=O)=O)NC(=O)OCc2nc(C)oc2C)c1
- Ki (Beta-secretase 1 [1]): 15 µM

Structure (SMILES): CC(C)NC[C@@H](O)[C@H](Cc1ccccc1)NC(=O)c1cc(C(=O)N[C@H](C)c2ccccc2)cc(N(C)S(C)(=O)=O)c1
- IC50 (Beta-secretase 1 [2]): 1.1 µM
- Ki (Beta-secretase 1 [1]): 0.425 µM
